Measured values as given in patent US11723907B2, “Anti-aging compounds” (THE CLEVELAND CLINIC FOUNDATION, priority 2017, dated 2023).

Tests used:
[1] = system: HSC; assay: Competitive repopulation assay, CD45.1/2 mouse model; assay type: in vivo; details: CD45.2 mice, one month in drinking water, ~2.0 mg/kg
Description: (§1) FIGS. 2A-2G provide graphs and images showing N2N1 and VA support HSC/progenitors populations under pressure of differentiation and tissue culture stress in vitro and in vivo. General schema of CFU (A) and LTC-IC assays (B). […] Representative result of three NBM is shown. (D) The morphology of cells at the end of 1st part of LTC-IC assay is shown. The total number of cells at this step of experiment was always larger in the samples treated with experimental drugs. (E) Treatment of mice with N2N1 promotes maintenance of normal HSC in vivo. Competitive repopulation assay performed on CD45.2 mice treated with N2N1. Summary of four animals, three hematopoietic tissues. […] Representative result of three patients is shown.
The potential positive impact of identified pro-survival catalysts on viability and propagation of HSC was evaluated in competitive repopulation assay based on CD45.1/2 mouse model, a “gold standard” for HSC performance.

[2] = system: fibroblasts derived from a patient diagnosed with Bloom syndrome; assay: RLS of Bloom syndrome fibroblasts; assay type: cell-based, human
Description: (§2) FIGS. 1A-1I provide graphs and images showing a new high throughput method for simultaneous detection of senescence associated SAβG activity and ATP in culture of normal pre-aged cells identified two potent anti-aging scaffolds. (A). General schema of HTS. (B). […] (C). Structures and corresponding tautameric forms of lead compounds. (D) Evaluation of possible genotoxic effect of experimental drugs in modified Ames test. 4-Nitroquinoline 1-oxide (4NQO) was used as a positive control. […] The general schema of RLS measurement in different cell types. (F) VA and N2N1 considerably extend RLS of normal human fibroblasts (NHDF) and stromal cells isolated from human normal bone marrow. (G). […] (I). Upper panel: Morphological appearance of NHDF at late passages with or without treatment. Lower panel: Cells were also fixed in para-formaldehyde and stained to detect SAβG.

[3] = system: hematopoietic colony assays; assay: Hematologic toxicity in hematopoietic colony assays; assay type: cell-based
Description: They have first applied them in a battery of tissue culture assays measuring i) exhaustion kinetics of HSC and ii) hematologic toxicity. […] The inventors then focused our studies on HSC performance measured in CFU assay and in LTC-IC (FIG. 2), the best in vitro surrogate assay for the quantification and functional assessment of HSCs.

[4] = system: fibroblasts derived from Werner syndrome patient; assay: RLS of Werner syndrome fibroblasts; assay type: cell-based, human
Description: as §2

[5] = Modified Ames test for genotoxic effect; details: 4NQO positive control
Description: as §2

[6] = system: mitochondrial respiration rate; assay: Mitochondrial respiration and glycolysis on Seahorse apparatus; assay type: cell-based; details: within few minutes or even hours after addition
Description: Based on results obtained on tissue cultured cells (increased RLS) and an increase in the numbers of HSC surrogate cells (LTC-IC or CFU), the inventors set their future goal to develop a novel pharmacological treatment for AA patients and potentially for other BMF. They have examined the most prominent features of cellular aging: telomere shortening, mitochondrial dysfunction or decline in respiratory capacity and shift in intracellular redox balance toward more oxidized environment. […] The only persistent effect of VA was considerable reduction in global protein disulfide bonds (up to 30%) detected by Elman's reagent or direct labelling of reduced sulfhydryl groups with biotin-switch assay (FIG. 3A). That brought the reductive hypothesis to the inventors' attention. The redox potential is controlled by sophisticated set of diverse enzymes and this system is fed from generation of NADPH by multiple hydrogenases (FIG. 3B). Among them, the glucose-6-phosphate dehydrogenase (G6P) is most important, because it controls the rate limiting step of pentose phosphate pathway. The other important dehydrogenases are isocytrate dehydrogenases (cytoplasmic and mitochondrial, IDH1/2) and 6-phosphogluconate dehydrogenase (6PG). The next anti-oxidant cellular protection layer is thioredoxin and glutathione systems (FIG. 3B). The first one is composed of thioredoxin reductase (TrxR) and thioredoxin. […]

[7] = system: HSC/progenitors from normal bone marrows; assay: CFU and LTC-IC assays, normal bone marrow; assay type: cell-based, human; details: for colonies formation: tissue culture derived from normal bone marrows; for total number of cells at end of 1st part of LTC-IC assay: versus untreated samples
Description: as §1
While these compounds may have many applications, the inventors have focused on potential usage of these agents to improve the function of HSC in BMF. They have first applied them in a battery of tissue culture assays measuring i) exhaustion kinetics of HSC and ii) hematologic toxicity. […] The inventors then focused our studies on HSC performance measured in CFU assay and in LTC-IC (FIG. 2), the best in vitro surrogate assay for the quantification and functional assessment of HSCs. The potential positive impact of identified pro-survival catalysts on viability and propagation of HSC was evaluated in methylcellulose cultures, classic CFU assay, long-term culture colony-initiating (LTC-IC) cell assays (FIGS. 2A, B and C) and competitive repopulation assay based on CD45.1/2 mouse model (FIG. 2E).
As a starting point for clinical application of identified redox catalysts, the inventors tested them on their ability to stimulate hematopoiesis in normal and damaged bone marrow cells, isolated from the patients with severe AA (FIGS. 2C and F). Very promising data was obtained, confirming the original idea that these small molecules can support propagation of both normal HSC and stem cells presented in damaged or disease bone marrow.

[8] = system: global protein disulfide bonds; assay: Global protein disulfide bonds (Elman's reagent, biotin-switch assay); assay type: cell-based; details: Elman's reagent or biotin-switch assay
Description: FIGS. 3A-3C provide graphs and schemes showing the preliminary data that directed the plan to find the mechanism of action of identified anti-aging compounds. (A) Substantial decrease in oxidized sulfhydryl groups were detected after several days of treatment with VA. […] The inventors decided to check if VA can participate in catalytic reactions performed by the enzymes involved in generation of reductive potential or its utilization by transferring the electrons to oxidized disulfide bonds t. […] In particular, catalytic reduction of molecular oxygen and cytochrome c was observed. Therefore, the inventors decided to take into account the most prominent enzymes that were noted to be involved into initiation or prevention aging-like traits.
Based on results obtained on tissue cultured cells (increased RLS) and an increase in the numbers of HSC surrogate cells (LTC-IC or CFU), the inventors set their future goal to develop a novel pharmacological treatment for AA patients and potentially for other BMF. […] The only persistent effect of VA was considerable reduction in global protein disulfide bonds (up to 30%) detected by Elman's reagent or direct labelling of reduced sulfhydryl groups with biotin-switch assay (FIG. 3A). […]

[9] = Non-enzymatic electron transfer from NAD(P)H to oxidized glutathione; assay type: biochemical; details: potassium phosphate buffer pH 7.0, 37° C.
Experimental: FIGS. 4A 4B provide graphs and schemes showing VA's mechanism of action. […] (A) Different concentrations of VA were incubated with GssG in potassium phosphate buffer at pH 7.0, 37° C. […] The effective concentrations of VA were similar to the detected for the extension of RLS in normal or progeroid cells. (B) The proposed molecular mechanism of glutathione reduction catalyzed by VA. The slightly acidic buffers (pH 7.0) supplemented with potassium (100 mM) were the preferable reaction conditions.
Lead compounds were tested on their possible catalytic amelioration of enzyme kinetics with all above mentioned proteins: recombinant and presented in cellular lysates.

Structure (SMILES) | HSC number / repopulation capacity [1] | response of RLS to treatment [2] | LD50 [3] [µM] | response of RLS to treatment [4] | genotoxic effect [5] | immediate response in mitochondrial respiration rate or glycolysis efficacy [6] | colonies formation [7] | total number of cells at end of 1st part of LTC-IC assay [7] | reduction in global protein disulfide bonds [8] | rate of NAD(P)H oxidation by GssG [9]
O=C1/C(=N/O)C=Cc2ccccc21 [N2N1, 1-naphthoquinone-2-monoxime] | increased number of HSC or/and increased repopulation capacity | responded positively | 15 | did not respond | did not show any detrimental effect on DNA integrity | could not detect any immediate | promote colonies formation | always larger |  | 
O=C1NC(=O)C(=NO)C(=O)N1 [VA, 2,4,5,6(1H,3H)-pyrimidine-tetrone 5-oxime] |  | responded positively | 5000 | did not respond | did not show any detrimental effect on DNA integrity | could not detect any immediate | promote colonies formation | always larger | up to 30% | substantially increase the reaction rate
